In the series the test system is S. elongatus. The series can be described thus: tolerance of S. elongatus to isobutyraldehyde and isobutanol (growth by OD730). The series is classed as cell-based, Synechococcus elongatus PCC7942. The protocol:
FIGS. 1P-1Q show S. elongatus tolerance to isobutyraldehyde and isobutanol. Effect of isobutyraldehyde (P) or isobutanol (Q) addition on growing cultures of S. elongatus as determined by optical density (OD730). At OD730 ˜1.0, isobutyraldehyde or isobutanol was added to the cultures at final concentration (mg/L) of: 0 (squares), 500 (circles), 750 (triangles), 1000 (diamonds) and 2500 (stars).
The tolerance of S. elongatus to isobutyraldehyde and isobutanol was also measured (FIG. 1P). […] In addition, the isobutyraldehyde tolerance level of S. elongatus is much higher than the concentration found in the culture medium during production. […] Thus, the in situ product removal system effectively avoids toxicity effects.
Wild-type S. elongatus and mutant strains were grown in a modified BG-11 medium with the following modifications: 50 mM NaHCO3 and 10 mg/l thiamine were added. For an experiment with 5% CO2 bubbling, 50 mM NaHCO3 was not added. Cyanobacterial cells were grown at 30° C. under fluorescent light (55 μE s^−1 m^−2), which was provided by eight 86-cm 20-W fluorescent tubes placed 15 cm from the cell culture. Cell growth was monitored by measuring OD730 of each culture.

Each structure is given as a SMILES string.

These results are taken from patent publication US9145542B2, “Method for producing aldehyde from CO2” (The Regents of the University of California, priority 2008, dated 2015).

For `CC(C)CO` [isobutanol], under “wild-type S. elongatus, the same concentration (750 mg/l) added to growing cultures, growth by OD730”, the effect on growth result is given as “growth retardation”. Regarding `CC(C)C=O` [isobutyraldehyde], under “S. elongatus, isobutyraldehyde compared with isobutanol”, the “relative toxicity to the cell” value is “less toxic to the cell than isobutanol”. The tolerated concentration result (wild-type S. elongatus, compound added to growing cultures at OD730 ~1.0, growth by OD730) is recorded as “up to 750 mg/l”.
